# Measured values: patent publication US6630488B1, “Quinolizinones as integrin inhibitors” (Biochem Pharma, Inc., priority 1998, dated 2003)
# Where a name gives a salt, the structure may show the parent alone. Read-outs that look alike come from different tables or passages of the source.
# What was measured:
# [1] = biological target: T1, placental αvβ3 (Homo sapiens, UniProt P05106+P06756); test: Fibrinogen binding to immobilized αvβ3
# T1 construct: purified active GP IIb-IIIa (Calbiochem) or olacental αvβ3 at 0.5 μg/ml; from tissue; host or cells: placenta
# Method: (§1) Nonbound fibrinogen was removed by five washes with binding buffer. Avidin conjugated to alkaline phosphatase (Sigma), diluted in binding buffer, was added and incubated for two hours at 37° C. The plates were washed five times with binding buffer, and after addition of the substrate PNPP (Pierce), the enzyme activity was measured by the absorbance at 405 nm.
# [2] = biological target: T2, GP IIb-IIIa (αIIbβ3) (Homo sapiens, UniProt P05106+P08514); test: Fibrinogen binding to immobilized GP IIb-IIIa (αIIbβ3)
# T2 construct: purchased Calbiochem
# Method: as §1
# [3] = biological target: T3, αvβ3 (Homo sapiens, UniProt P05106+P06756); test: Cell attachment assay, K562 transfected with αvβ3; format: cell-based
# T3 construct: expressed in transfected cells; host or cells: K562
# Method: (§2) The wells of 96-well plates (Immunolon) were coated, by incubation overnight at 4° C., with 5 μg/ml of vitronectin or osteopontin, 10 μg/ml of fibronectin or 10 mg/ml BSA in PBS. The protein solution was flicked out and the wells were blocked with 10 mg/ml BSA (0.1 ml) for 1-2 hours at 37° C.
# (§3) Cells were lifted with trypsin-EDTA and washed two times with Hank's balanced salt solution (Sigma) supplemented with 1 mM MgCl2. Cells (75,000 cells/well) were added to coated plates in triplicate and allowed to attach at 37° C. for 1 hour in the presence or absence of specific antibodies at 5 μ/ml or increasing concentrations of compounds of interest (0.001-10 μM). Nonadherent cells were removed by gentle washing twice with PBS. The adherent cells were solubilized with 1% triton X-100 and detected using a fluorescence plate reader (Perkin Elmer).
# (§4) The number of attached cells was calculated based upon starched curves for each cell line used in the experiment. […] The results presented are the average of triplicate samples and representative of several separate assays.
# [4] = biological target: T4, α5β1 (Homo sapiens, UniProt P05556+P08648); test: Cell attachment assay, K562; format: cell-based; conditions: ligand fibronectin, read-out: Cell attachment IC50, α5β1, Fibro-nectin
# T4 construct: Cell Line; K562 transfected αvβ3; HT29; K562; endogenous in cells; host or cells: K562
# Method: The wells of 96-well plates (Immunolon) were coated, by incubation overnight at 4° C., with 5 μg/ml of vitronectin or osteopontin, 10 μg/ml of fibronectin or 10 mg/ml BSA in PBS. The protein solution was flicked out and the wells were blocked with 10 mg/ml BSA (0.1 ml) for 1-2 hours at 37° C. Cells [HT29 (ATOC), HMVEC (Cell Systems), K562 or K562 transfected with αvβ3 (Blystone et al., 1994)] were loaded with a fluorescent marker, 5-chloromethylfluorescein diacetate (Molecular Probes, Eugene, Or) for 1 hour at 37° C., then incubated in fresh medium without the fluorescent marker for 1 hour.
# as §3
# The number of attached cells was calculated based upon starched curves for each cell line used in the experiment. Non-specific cell attachment (attachment to wells coated with BSA) was always less than 5%. The results presented are the average of triplicate samples and representative of several separate assays.
# [5] = Cell proliferation and cytotoxicity MTT assay, HMVEC; format: cell-based; conditions: human, HMVEC endothelial cells
# Method: (§5) The wells of microtiter plates were seeded with 2000 cells/well (T24), 2500 cells/well (HT29), 5000 cells/well (HMVEC)or 2500 cells/well (IAFp2) in 100 μL, followed by an overnight culture for cell adhesion. […] Following culture for 72 hours, 3-(4,5-dimethyl-2-thiazolyl)-2,5-diphenyltetrazolium bromide (MTT; Sigma) at 2 mg/ml was added to each well (50 μL/well) and further incubated for 4 hours at 37° C. The medium was flicked out and 200 μL of a 1:1 solution of ethanol:acetone followed by 25 μL of glycine buffer (0.1 M glycine, 0.1M NaCl, pH 10.5) is added and the color measured by the absorbance at 570 nm.
# [6] = Cell proliferation and cytotoxicity MTT assay, HT29; format: cell-based; conditions: human, HT29 tumor cells
# Method: as §5
# [7] = Cell proliferation and cytotoxicity MTT assay, T24; format: cell-based; conditions: human, T24 tumor cells
# Method: as §5
# [8] = Cell proliferation and cytotoxicity MTT assay, IAFp2; format: cell-based; conditions: IAFp2 skin fibroblasts, read-out: Cell proliferation and cytotoxicity IC50, IAFp2 Skin Fibroblast
# Method: as §5
# [9] = system: Chick Chorioallantoic Membrane (CAM) capillary formation; test: Chick chorioallantoic membrane (CAM) mesh assay; format: in vivo, chicken; conditions: Day 12, 24 hr treatment
# Method: Fertilized white leghorn chicken eggs (SPAFAS Inc., Norwich, Conn.) were received at day 0 and incubated for 3 days at 37 C with constant humidity. On day 3, eggs were rinsed with 70% ethanol and opened into 100 mm^2 tissue culture coated Petri dishes under aseptic conditions. The embryos were then returned to a humidified 38 C incubator for 7-9 additional days.
# Vitrogen (Collagen Biomaterials, Palo Alto, Calif.) at a final concentration of 0.73 mg/ml and Matrigel (Becton Dickinson, Bedford, Mass.) at a final concentration of 10 mg/ml was directly pipetted onto Nylon meshes with 250 μm^2 openings which were cut into 4 mm×4 mm squares and autoclaved. Polymerization of meshes were under aseptic conditions, on bacteriological Petri dishes. The polymerization conditions for each substrate were identical; after mixing with or without […] of VPF/VEGF165 (Peprotech, Rocky Hill, N.J.) and/or compounds of interest, 40 μl were pipetted onto each mesh in a bacteriological Petri dish.
# The Petri dish was placed in a humidified 37 C incubator with 5% CO2 for 30 minutes to allow polymerization followed by an incubation at 4 C for 2 hours.
# In a tissue culture enclosure, meshes were placed onto the periphery of the CAM of a day 12-14 embryo, excluding areas containing major vessels. The embryos were then returned to the humidified 38 C incubator with 3% CO2 for 24 to 48 additional hours.
# Embryos were removed from the incubator and meshes were viewed under a dissecting microscope for gross evaluation. Injection of 400 μl FITC dextran, MW 2,000,000 (Sigma, St. Louis, Mo.) through glass microcapillary tubes by infusion into the umbilical vein was performed at a rate of 200 μl per minute. The FITC dextran was allowed to circulate for 5 minutes and 3.7% formaldehyde in PBS was applied directly on each mesh. The embryos were then incubated at 4 C for 5 minutes and the meshes were dissected off the CAM and fixed in 3.7% formaldehyde for 10 minutes to overnight.
# After fixation, meshes were mounted on slides with 90% glycerol in PBS and visualized on an inverted fluorescence microscope. A Nikon Diaphot with a Sony DXC-151A camera attached to the side port was used for capture of images and analysis was with the NIH Image 1.61 software program. For each mesh, 5 random staggered images (approximately 600 μm each) were captured. The areas of high intensity were highlighted and measured. Results are expressed as ability to suppress capillary formation after subtraction from negative control. Values were calculated as i inhibition, considering 100% the capillary density achieved by VPF in the presence of vitrogen alone minus the background levels in the absence of VPF. Negative values indicate angiogenic stimulation above the VPF positive control.
# [10] = biological target: T5, αvβ5 (Homo sapiens, UniProt P06756+P18084); test: Cell attachment assay, HT29; format: cell-based
# T5 construct: Cells [HT29 (ATOC), HMVEC (Cell Systems), K562 or K562 transfected with αvβ3; endogenous in cells; host or cells: HT29
# Method: as §2, §3, §4
# [11] = Cell attachment IC50, αvβ3, Osteo-Pontin, ligand osteopontin
# [12] = Cell attachment IC50, αvβ3, Vitro-nectin, ligand vitronectin
# [13] = biotinylated-fibrinogen 10 nM, immobilized placental αvβ3, read-out: IC50 values for the fibrinogen binding assay αvβ3
# [14] = biotinylated-fibrinogen 10 nM, immobilized GP IIb-IIIa, read-out: IC50 values for the fibrinogen binding assay αIIbβ3
# [15] = ligand osteopontin, read-out: Cell attachment IC50, αvβ3, Osteo-Pontin
# [16] = HT29, ligand vitronectin, read-out: Cell attachment IC50, αvβ5, Vitro-Nectin
# T4 sequence (P08648 42-894 limits assumed): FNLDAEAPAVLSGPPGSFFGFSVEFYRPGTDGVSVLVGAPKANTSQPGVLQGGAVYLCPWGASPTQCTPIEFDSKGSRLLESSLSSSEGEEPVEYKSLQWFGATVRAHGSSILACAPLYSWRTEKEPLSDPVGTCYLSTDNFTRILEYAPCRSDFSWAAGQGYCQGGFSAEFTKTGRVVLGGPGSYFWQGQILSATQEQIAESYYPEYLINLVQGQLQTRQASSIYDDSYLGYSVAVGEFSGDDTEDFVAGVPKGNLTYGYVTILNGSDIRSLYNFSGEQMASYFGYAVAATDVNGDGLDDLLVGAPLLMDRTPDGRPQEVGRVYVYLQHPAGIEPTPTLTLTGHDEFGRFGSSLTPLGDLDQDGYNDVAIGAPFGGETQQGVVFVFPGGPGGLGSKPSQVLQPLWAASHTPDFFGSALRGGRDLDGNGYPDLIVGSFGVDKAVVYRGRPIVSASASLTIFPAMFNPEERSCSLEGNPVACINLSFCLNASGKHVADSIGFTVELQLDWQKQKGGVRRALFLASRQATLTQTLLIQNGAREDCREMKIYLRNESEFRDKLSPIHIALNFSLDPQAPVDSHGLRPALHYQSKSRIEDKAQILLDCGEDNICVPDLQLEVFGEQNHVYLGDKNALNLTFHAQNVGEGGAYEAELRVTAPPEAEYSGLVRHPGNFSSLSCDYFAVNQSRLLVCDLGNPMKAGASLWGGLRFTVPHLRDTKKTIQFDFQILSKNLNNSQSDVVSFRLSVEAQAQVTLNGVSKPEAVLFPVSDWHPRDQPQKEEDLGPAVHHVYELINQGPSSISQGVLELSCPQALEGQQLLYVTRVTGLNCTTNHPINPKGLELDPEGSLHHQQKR
# T4 sequence (P08648 895-1049 partner limits assumed): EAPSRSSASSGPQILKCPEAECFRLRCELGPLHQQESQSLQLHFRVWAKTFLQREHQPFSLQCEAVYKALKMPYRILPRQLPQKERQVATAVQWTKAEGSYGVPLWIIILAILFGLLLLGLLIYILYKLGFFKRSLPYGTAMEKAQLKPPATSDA
# T4 sequence (P05556 21-798): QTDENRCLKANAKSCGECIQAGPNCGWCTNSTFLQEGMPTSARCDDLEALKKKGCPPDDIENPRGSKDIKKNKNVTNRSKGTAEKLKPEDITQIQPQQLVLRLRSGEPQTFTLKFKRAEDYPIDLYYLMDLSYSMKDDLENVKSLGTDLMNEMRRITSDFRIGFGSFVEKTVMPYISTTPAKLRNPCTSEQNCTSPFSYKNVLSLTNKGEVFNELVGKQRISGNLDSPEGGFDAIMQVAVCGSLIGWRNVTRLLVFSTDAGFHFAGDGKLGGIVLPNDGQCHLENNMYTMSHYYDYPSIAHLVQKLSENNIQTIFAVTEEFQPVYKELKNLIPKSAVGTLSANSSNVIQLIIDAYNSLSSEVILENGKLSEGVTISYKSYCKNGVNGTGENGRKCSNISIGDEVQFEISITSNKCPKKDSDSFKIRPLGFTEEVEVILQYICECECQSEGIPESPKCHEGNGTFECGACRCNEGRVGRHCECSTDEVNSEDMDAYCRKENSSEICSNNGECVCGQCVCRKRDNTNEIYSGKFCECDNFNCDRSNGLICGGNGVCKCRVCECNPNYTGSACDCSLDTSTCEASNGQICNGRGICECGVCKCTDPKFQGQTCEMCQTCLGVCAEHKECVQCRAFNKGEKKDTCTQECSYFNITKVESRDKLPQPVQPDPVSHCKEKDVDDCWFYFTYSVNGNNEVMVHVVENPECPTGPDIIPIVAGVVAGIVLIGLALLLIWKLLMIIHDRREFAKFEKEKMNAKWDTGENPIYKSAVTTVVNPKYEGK
# T1 sequence (P06756 31-889 limits assumed): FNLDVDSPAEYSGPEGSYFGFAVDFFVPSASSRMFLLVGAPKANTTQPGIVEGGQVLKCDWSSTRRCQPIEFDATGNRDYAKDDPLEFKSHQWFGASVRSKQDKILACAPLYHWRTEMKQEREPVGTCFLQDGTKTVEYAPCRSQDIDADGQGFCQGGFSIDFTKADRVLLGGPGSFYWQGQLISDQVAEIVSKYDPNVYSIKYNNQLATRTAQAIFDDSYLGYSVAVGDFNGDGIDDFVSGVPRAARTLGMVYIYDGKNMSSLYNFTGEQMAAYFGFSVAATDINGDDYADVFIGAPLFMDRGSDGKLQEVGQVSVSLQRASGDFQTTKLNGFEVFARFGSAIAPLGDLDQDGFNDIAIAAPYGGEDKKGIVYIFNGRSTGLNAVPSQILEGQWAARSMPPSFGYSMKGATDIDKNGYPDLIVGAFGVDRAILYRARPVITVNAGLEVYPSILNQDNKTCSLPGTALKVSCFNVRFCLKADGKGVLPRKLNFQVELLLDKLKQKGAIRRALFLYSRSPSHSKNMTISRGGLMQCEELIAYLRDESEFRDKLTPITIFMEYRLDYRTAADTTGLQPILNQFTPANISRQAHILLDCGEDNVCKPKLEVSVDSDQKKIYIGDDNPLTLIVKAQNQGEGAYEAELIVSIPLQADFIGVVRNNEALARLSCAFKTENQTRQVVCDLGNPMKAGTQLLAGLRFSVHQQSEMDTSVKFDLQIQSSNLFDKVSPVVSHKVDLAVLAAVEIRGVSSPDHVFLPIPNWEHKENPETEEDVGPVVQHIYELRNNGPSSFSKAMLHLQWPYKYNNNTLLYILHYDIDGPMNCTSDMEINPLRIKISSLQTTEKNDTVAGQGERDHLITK
# T1 sequence (P06756 891-1048 partner limits assumed): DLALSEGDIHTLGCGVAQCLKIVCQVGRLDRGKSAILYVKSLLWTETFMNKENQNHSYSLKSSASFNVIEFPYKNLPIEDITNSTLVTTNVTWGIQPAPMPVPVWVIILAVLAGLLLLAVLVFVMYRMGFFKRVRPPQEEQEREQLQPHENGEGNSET
# T1 sequence (P05106 27-788): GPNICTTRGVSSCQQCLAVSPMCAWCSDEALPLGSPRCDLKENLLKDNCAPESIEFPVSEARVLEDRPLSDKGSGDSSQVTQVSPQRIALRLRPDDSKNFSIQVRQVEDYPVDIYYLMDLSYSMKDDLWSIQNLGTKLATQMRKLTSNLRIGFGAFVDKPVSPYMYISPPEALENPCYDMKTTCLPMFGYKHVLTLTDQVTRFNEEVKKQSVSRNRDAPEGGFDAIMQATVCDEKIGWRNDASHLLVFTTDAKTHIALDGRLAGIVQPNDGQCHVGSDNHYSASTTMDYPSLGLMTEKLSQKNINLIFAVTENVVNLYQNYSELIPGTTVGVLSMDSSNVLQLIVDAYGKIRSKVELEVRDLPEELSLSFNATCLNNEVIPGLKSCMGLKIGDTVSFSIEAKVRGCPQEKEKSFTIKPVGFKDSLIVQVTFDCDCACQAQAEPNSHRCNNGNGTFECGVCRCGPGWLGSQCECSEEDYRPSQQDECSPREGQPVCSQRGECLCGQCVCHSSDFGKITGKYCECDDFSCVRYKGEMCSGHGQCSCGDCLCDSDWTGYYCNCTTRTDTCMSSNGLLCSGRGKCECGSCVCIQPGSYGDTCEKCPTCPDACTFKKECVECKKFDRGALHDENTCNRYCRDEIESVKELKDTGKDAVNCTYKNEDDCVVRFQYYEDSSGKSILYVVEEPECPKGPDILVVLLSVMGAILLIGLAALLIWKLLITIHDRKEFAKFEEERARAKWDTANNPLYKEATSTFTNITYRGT
# T5 sequence (P06756 31-889 limits assumed): as the sequence (P06756 31-889 limits assumed) above
# T5 sequence (P06756 891-1048 partner limits assumed): as the sequence (P06756 891-1048 partner limits assumed) above
# T5 sequence (P18084 24-799): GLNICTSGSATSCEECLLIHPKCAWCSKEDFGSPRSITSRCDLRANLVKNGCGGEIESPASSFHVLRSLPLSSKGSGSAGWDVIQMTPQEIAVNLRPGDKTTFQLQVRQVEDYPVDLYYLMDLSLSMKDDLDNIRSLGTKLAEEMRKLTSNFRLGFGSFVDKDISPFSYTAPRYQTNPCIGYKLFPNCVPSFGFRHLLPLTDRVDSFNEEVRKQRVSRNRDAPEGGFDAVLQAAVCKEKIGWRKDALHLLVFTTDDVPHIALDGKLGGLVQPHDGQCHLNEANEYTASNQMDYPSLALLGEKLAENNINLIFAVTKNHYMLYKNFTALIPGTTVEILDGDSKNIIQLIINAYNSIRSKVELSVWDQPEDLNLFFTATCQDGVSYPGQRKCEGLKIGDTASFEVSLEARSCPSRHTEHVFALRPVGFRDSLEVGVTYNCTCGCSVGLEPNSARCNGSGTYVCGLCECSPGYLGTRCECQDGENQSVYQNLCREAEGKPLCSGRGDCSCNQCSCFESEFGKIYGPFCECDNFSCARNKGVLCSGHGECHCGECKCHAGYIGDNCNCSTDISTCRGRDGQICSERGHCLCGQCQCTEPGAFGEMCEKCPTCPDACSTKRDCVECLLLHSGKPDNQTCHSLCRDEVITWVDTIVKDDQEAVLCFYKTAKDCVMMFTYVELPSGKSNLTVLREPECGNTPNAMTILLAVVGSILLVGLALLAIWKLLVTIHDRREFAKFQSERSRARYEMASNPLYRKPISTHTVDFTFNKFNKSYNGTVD
# T3 sequence (P06756 31-889 limits assumed): as the sequence (P06756 31-889 limits assumed) above
# T3 sequence (P06756 891-1048 partner limits assumed): as the sequence (P06756 891-1048 partner limits assumed) above
# T3 sequence (P05106 27-788): as the sequence (P05106 27-788) above
smiles,measurement,setting,value
"N=C(N)NCCCOc1ccc2cc(C(=O)NC[C@H](NS(=O)(=O)c3ccccc3)C(=O)O)cc(=O)n2c1 [Compound XV, (S)-2-Benzenesulfonylamino-3-{[7-(3-guanidino-propoxy)-4-oxo-4H-quinolizine-2-carbonyl]-amino}-propionic Acid Hydrochloride]",IC50,[1],0.015 µM
same,IC50,[2],0.0053 µM
same,IC50,[3]; [11],0.5 ± 0.2 µM
same,IC50,[3]; [12],2.5 ± 1.5 µM
same,IC50,[4],> 10 µM
same,IC50 at 72 h,[5],16 ± 4 µM
same,IC50 at 72 h,[6],> 100 µM
same,IC50 at 72 h,[7],> 100 µM
same,IC50 at 72 h,[8],17 µM
same,CAM inhibition of capillary formation,"[9]; 3 μg/mesh, +VPF",7%
same,CAM inhibition of capillary formation,"[9]; 3 μg/mesh, −VPF",2%
same,CAM inhibition of capillary formation,"[9]; 17 μg/mesh, +VPF",7%
same,CAM inhibition of capillary formation,"[9]; 17 μg/mesh, −VPF",9%
same,CAM inhibition of capillary formation,"[9]; 33 μg/mesh, +VPF",10%
same,CAM inhibition of capillary formation,"[9]; 33 μg/mesh, −VPF",8%
"N=C(N)NCCOc1ccc2cc(C(=O)NC[C@H](NS(=O)(=O)c3ccccc3)C(=O)O)cc(=O)n2c1 [Compound XX, (S)-2-Benzenesulfonylamino-3-{[7-(2-guanidino-ethoxy)-4-oxo-4H-quinolizine-2-carbonyl]-amino}-propionic Acid Hydrochloride]",IC50,[1],0.1 µM
same,IC50,[2],0.0079 µM
same,IC50,[3]; [11],2.3 ± 2 µM
same,IC50,[3]; [12],> 10 µM
same,IC50,[10],> 10 µM
same,IC50,[4],> 10 µM
same,IC50 at 72 h,[5],35 ± 22 µM
same,IC50 at 72 h,[6],100 µM
same,IC50 at 72 h,[7],> 100 µM
same,IC50 at 72 h,[8],21 µM
"N=C(N)NCC1CCc2cc(C(=O)NCC(NS(=O)(=O)c3ccccc3)C(=O)O)cc(=O)n2C1 [Compound XXIX, (2S, 7R) and (2S, 7S)-2-Benzenesulfonylamino-3-[(7-guanidinomethyl-4-oxo-6,7,8,9-tetrahydro-4H-quinolizine-2-carbonyl)-amino]-propionic Acid]",IC50,[1]; [13],0.0042 µM
same,IC50,[2]; [14],0.094 µM
same,IC50,[3]; [15],0.16 ± 0.01 µM
same,IC50,[10]; [16],3.2 ± 1.6 µM
same,IC50,[4],> 10 µM
same,IC50 at 72 h,[5],1 ± 0.2 µM
same,IC50 at 72 h,[6],13 µM
same,IC50 at 72 h,[7],> 100 µM
same,IC50 at 72 h,[8],23 µM
same,CAM inhibition of capillary formation,"[9]; 3 μg/mesh, +VPF",10%
same,CAM inhibition of capillary formation,"[9]; 3 μg/mesh, −VPF",4%
same,CAM inhibition of capillary formation,"[9]; 17 μg/mesh, +VPF",12%
same,CAM inhibition of capillary formation,"[9]; 17 μg/mesh, −VPF",8%
same,CAM inhibition of capillary formation,"[9]; 33 μg/mesh, +VPF",14%
same,CAM inhibition of capillary formation,"[9]; 33 μg/mesh, −VPF",13%
"Cl.N=C(N)NCc1ccc2cc(C(=O)NC[C@H](NS(=O)(=O)c3ccccc3)C(=O)O)cc(=O)n2c1 [Compound XXVII, (S)-2-Benzenesulfonylamino-3-[(7-guanidinomethyl-4-oxo-4H-quinolizine-2-carbonyl)-amino]-propionic Acid Hydrochloride]",IC50,[1]; [13],0.015 µM
same,IC50,[2]; [14],0.25 µM
same,IC50,[3]; [15],0.43 ± 0.18 µM
same,IC50,[10]; [16],5.8 ± 3.6 µM
same,IC50,[4],> 10 µM
same,IC50 at 72 h,[5],1.2 ± 0.4 µM
same,IC50 at 72 h,[6],> 100 µM
same,IC50 at 72 h,[7],> 100 µM
same,IC50 at 72 h,[8],> 100 µM
same,CAM inhibition of capillary formation,"[9]; 3 μg/mesh, +VPF",9%
same,CAM inhibition of capillary formation,"[9]; 3 μg/mesh, −VPF",5%
same,CAM inhibition of capillary formation,"[9]; 17 μg/mesh, +VPF",12%
same,CAM inhibition of capillary formation,"[9]; 17 μg/mesh, −VPF",11%
same,CAM inhibition of capillary formation,"[9]; 33 μg/mesh, +VPF",19%
same,CAM inhibition of capillary formation,"[9]; 33 μg/mesh, −VPF",16%
